Here are results for four compounds from patent US20170042929A9, “Methods of Treating Neurological Diseases” (priority 2012, published 2017).

Entries after “also recorded” stand apart in the source; their conditions may differ. Bounds are passed on as bounds.

The test system of one assay is SMEI seizures. To be noted: previously tested; cited from earlier work.
In assay [1] the test system is hippocampal area CA1 of HET (SCN1A mSMEI) tissue. In words: Evoked fEPSP extracellular recordings in hippocampal slices, Schaeffer collateral stimulation (single pulse and 40 Hz trains). Format: cell-based, mouse. To be noted: for population spike evoked by very low stimulation intensity: HET CA1; for fEPSP amplitude / synaptic excitability in HET tissue: HET hippocampus, ten pulse 40 Hz stimulation. How it is done:
(§1) Mice (P16-22) were anesthetized with isofluorane, decapitated, and the brains immediately removed. Transverse hippocampal sections (350 μm thickness) were cut in cold dissection solution (in mM: 2.6 KCl, 1.23 NaH2PO4, 24 NaHCO3, 0.1 CaCl2, 2 MgCl2, 205 sucrose, and 10 glucose) using a vibratome and were incubated for half an hour in normal artificial cerebrospinal fluid (ACSF; pH 7.3, 30° C.) containing (in mM) 130 NaCl, 1.2 MgSO4, 3.5 KCl, 1.2 CaCl2, 10 glucose, 2.5 NaH2PO4, 24 NaHCO3 aerated with 95% O2-5% CO2. After the incubation, slices were stained with Di-4ANNEPS (final dye concentration is 0.05 mg/ml) and left to recover for an additional hour at 30° C. (23). The slices were transferred to a submersion recording chamber (Warner Instr.) and continuously perfused (2 ml/min, at 30° C.) with the oxygenated ACSF.
(§2) To characterize excitatory neural circuit activity, stimulating electrodes (concentric bipolar metal electrodes, 200 μm in diameter (FHC)) were placed on the Shaffer collaterals. fEPSP recordings were performed in hippocampal slices concurrently with the VSDI (FIGS. 1A-1E). Extracellular recording electrodes ([…], 0.9% saline) were placed in the CA1 radiatum layer. To monitor Di-4ANNEPS signals, the slices were illuminated either with Halogen (150 W; excitation 522-550 nm; emission—580 nm; dichroic—565 nm).
Input-output (I-O) characteristics of fEPSPs were calculated using the same intensities of stimulation and incrementally (0.05 mA) raising them until the maximal responses or population spikes were obtained. 1-0 calculations were performed in stained and unstained slices to rule out a possible modulation of Di-4ANEPPS on GABA receptors (24). The responses from stained and unstained slices were not statistically different and were pooled together for the final analysis.
(§3) To elicit short-term synaptic plasticity, Schaeffer collaterals were stimulated at 40 Hz frequency using 10 pulse (0.2 msec) trains. 40 Hz falls within the gamma frequency range and stimulation was repeated every 15 seconds with stimulus amplitude was set at the half of maximal fEPSP amplitude. fEPSP and VSDI optical data trials were synchronized.
To modulate hippocampal hyperexcitability A1R agonist N6-cyclopentyladenosine (CPA) was used. N6-cyclopentyladenosine dissolved in DMSO was added to the bath ACSF solution. N6-cyclopentyladenosine took effect within 2 minutes of its application. 10 and 1 μM and 500, 100, 50, and 10 nM concentrations of CPA were tested. Since N6-cyclopentyladenosine acts through G-protein linked mechanisms, the washout of N6-cyclopentyladenosine was not possible in the current experiments. […] A1R […] DPCPX concentration was 200 nM. All drugs and dye were obtained from Sigma-Aldrich.

Assay [2] concerns CA1 pyramidal cells of HET SMEI mice. In words: sEPSC and sIPSC whole-cell recordings after repeated CPA treatment. The format is in vivo, mouse. The following applies: repeated CPA treatment P11-P20, HET+CPA vs HET+vehicle. How it is done:
For electrical whole-cell voltage-clamp recordings, borosilicate glass micropipettes (4-7 MΩ) were used containing (in mM): 116 Cesium gluconate, 6 KCl, 0.5 EGTA, 20 HEPES, 10 phosphocreatine, 0.3 NaGTP, 2 NaCl, 4 MgATP, and 0.3% Neurobiotin (pH 7.25, 295 mOsm) and 5 mM QX-314 (fast voltage-gated conductance blocker). Spontaneous inhibitory postsynaptic currents (IPSCs) and EPSCs were recorded in CA1 pyramidal cells. sIPSCs were recorded at −80 mV in the presence of APV (100 μM) and CNQX (40 μM). sEPSCs were recorded at −70 mV in the presence of inhibitory synaptic transmission blocker picrotoxin (50 μM). Amplitude and frequency of sEPSCs and sIPSCs were measured and compared between WT and HET. For IPSC calculations, activity was studied in three 20 second segments (twenty seconds apart) for each cell (N=8 HET, 6WT). Since EPSCs have lower frequency, two minute long segments were used for their analysis (N=6). Cumulative distribution of the amplitudes and inter-event interval (frequency) were plotted in Prism software. t-test analysis was used to compare IPSCs and EPSCs in HET and WT tissue. All recordings were performed at 32° C. temperature. […]

Assay [3] deals with SMEI mice (SCN1A HET). In words: Chronic CPA treatment (P11-P20), hyperthermia-induced seizures in vivo. Details: species or system mouse. How it is done:
(§4) The model of SMEI used in these studies is caused by a knock-in nonsense substitution (CgG to TgA in exon 21) made within a loop between segments 5 and 6. Transgenic mice were provided by Drs. K. Yamakawa and I. Ogiwara (RIKEN, Japan (14)). All of the experiments on the mice (C57BL/6/129) involved in this project were performed in accordance with animal protocols approved by the Institutional Animal Care and Use Committee of the University of Houston. Heterozygous (HET) and wild-type (WT) mice were used.
The A1R agonist CPA has an acute effect on the control of hyperexcitable neural network, hyperthermia-induced seizure in vitro and in vivo. To investigate if the chronic treatment of mSMEI with CPA can have long-term effects on the rewiring of the neural circuit and FS threshold activity, CPA was injected into the SMEI mice twice a day for continuous 10 days during the critical activity-dependent period of development (P11-P20), and the effects were determined 24 hours and 10 days after the last injection.

Assay [4] concerns SMEI mice (SCN1A HET). In words: Acute CPA treatment, hyperthermia-induced seizures in vivo. Details: species or system mouse. How it is done: as §4
Assay [5] has as its system isolated mouse hippocampus. In words: Febrile seizure-like events (FSLE) in hyperthermia, extracellular recording in isolated hippocampus. The format is cell-based. The following applies: CPA added immediately after the first FSLE, P18 isolated hippocampus. As for the experimental part: FIG. 9A: unfiltered extracellular recording traces (DC mode) of the typical repeated FSLEs in P18 isolated mouse hippocampus. […] Immediately after that CPA was added.
Febrile seizure-like events (FSLE) emerge and terminate as sub-threshold bursts under conditions of hyperthermia at a temperature of about 39° C. in (FIGS. 6A-6C) while spontaneous inhibitory postsynaptic currents (IPSCs) evident at 32° C. (FIG. 6D) gradually diminish as the temperature increases (FIG. 6E). In hippocampal slices FSLEs emerged on the average at 38.5° C. in tissue from HET mice and at 40.5° C. in tissue from WT mice (FIGS. 7A-7B) where the FSLE durations was almost twice as long in HET tissue (FIG. 7C).

For assay [6], the system named is hippocampal CA1 circuit of HET (SCN1A mSMEI) tissue. In words: Voltage-sensitive dye imaging (VSDI) of evoked neural activity propagation, FWHM. Format: cell-based, mouse. To be noted: for abnormally wide circuit excitation, neural activity map (dF/Fmax) / spatial extent of neural signal propagation: 50 nM CPA; for abnormally wide circuit excitation, neural activity map (dF/Fmax): HET animal P19; for spatial extent of neural signal propagation: HET tissue. How it is done:
as §1
A combination of in vitro electrophysiology (extracellular field potential recording and whole-cell patch clamp recordings) and fast voltage-sensitive dye imaging (VSDI) was used. All electrical recordings were performed using MCC 700 amplifiers (Axon Instruments). Electrical data was acquired at 4 KHz, digitized at 10 KHz using a Digidata DAC board and pClamp software. Optical data were recorded at 250 Hz with MiCam 02 (192×126 pixels, SciMedia USA).
as §2, §3
Optical and electrical data were analyzed using Brain Vision and pClamp softwares. To increase signal to noise ratio, data analysis in individual slices and during pharmacological manipulations was performed on the averages of fifteen files (electrical and optical). Standard electrophysiological analysis techniques were used to analyze fEPSP, EPSC, and IPSC characteristics. For optical analysis, 1060 msec of data were fitted with an approximately Gaussian curve (25) and full width at half maximal (FWHM) values over the distance of 950 micrometers from the stimulating electrode toward subicullum were calculated using BrainVision (SciMedia). FWHM here quantifies distance of neuronal signal propagation (or decay). FWHM calculations along the orthodromic neural activity propagation trajectory included 15 frames before and 194 frames after the 40 Hz train stimulation, and was spanning over the evoked signal as shown in FIGS. 4A-4D. All results are reported as grouped averages with standard error of the mean. Results from WT and HET, or treated versus untreated groups were compared using unpaired and paired t-tests, respectfully. A p<0.05 was regarded as statistically significant value.

[7] abbreviates: 50 nM CPA, listed as N6-cyclopentyladenosine.

With `Nc1nnc(-c2cccc(Cl)c2Cl)c(N)n1` [lamotrigine], in the assay on SMEI seizures, the “efficacy against SMEI seizures” value is recorded as “none of these agents worked reliably”.
As to `CCCn1c(=O)c2[nH]c(C3CCCC3)nc2n(CCC)c1=O` [DPCPX], the “effect of DPCPX on the CPA-induced decrease of fEPSP amplitude” value in assay [1] (DPCPX 200 nM added to ACSF with 50 nM CPA) was “prevented N6-cyclopentyladenosine to decrease fEPSP amplitude; also recorded: N6-cyclopentyladenosine was ineffective at reducing fEPSP”.
Turning to `NC(=O)N1c2ccccc2C=Cc2ccccc21` [carbamazepine], in the assay on SMEI seizures, the “efficacy against SMEI seizures” value is recorded as “none of these agents worked reliably”.
As to `OC[C@H]1O[C@@H](n2cnc3c(NC4CCCC4)ncnc32)[C@H](O)[C@@H]1O` [CPA, N6-cyclopentyladenosine], the sIPSC amplitude result in assay [2] is “does not cause significant change in sIPSCs; also recorded: no significant difference”. For the same compound, the sIPSC interval result in assay [2] is given as “does not cause significant change in sIPSCs; also recorded: no significant difference”. Besides, the seizure incidence was 53% in the assay with SMEI mice (SCN1A HET) [3] (chronic CPA twice a day P11-P20, 24 hours after the last treatment, vehicle 83.3%) and 43% in the assay with SMEI mice (SCN1A HET) [3] (chronic CPA twice a day P11-P20, 10 days after the last treatment, vehicle 75%). Further, the seizure duration in the assay on SMEI mice (SCN1A HET) [3] (chronic CPA, 24 hours after the last treatment, vehicle 3.980±0.6651) worked out at 1.424±0.6904; with SMEI mice (SCN1A HET) [4] (acute CPA 15 minutes before hyperthermia, vehicle 5.91±1.17 min), 2.26 ± 0.43 min; in the assay on SMEI mice (SCN1A HET) [4] (acute CPA i.p. 15 minutes prior, HET+saline 5.91±1.17 (figure legend)) it was 2.26±0.43. Moreover, the seizure latency in the assay with SMEI mice (SCN1A HET) [3] (chronic CPA, 24 hours after the last treatment, vehicle 8.080±1.772) was 11.25±1.140; with SMEI mice (SCN1A HET) [4] (acute CPA 15 minutes before hyperthermia, vehicle 8.19±0.95 min) it was 11.68 ± 0.70 min; in the assay on SMEI mice (SCN1A HET) [4] (acute CPA i.p. 15 minutes prior, HET+saline 8.19±0.95 (figure legend)), 11.68±0.70. Further, the figures for the “population spike evoked by very low stimulation intensity” value in assay [1] (50 nM CPA) and in assay [1] (setting [7]) were “reduced this spike into a field EPSP response” and “reduced this spike into a fEPSP response; also recorded: effectively reduced this exaggerated response into fEPSP”, respectively. The “fEPSP amplitude / synaptic excitability in HET tissue” value is “significantly reduced fEPSP; also recorded: significantly reduced hippocampal circuit hyperexcitability without blocking excitatory synaptic transmission” in assay [1] (50 nM CPA) and “significantly reduced fEPSP trains; also recorded: significantly reducing synaptic excitability in HET tissues, without blocking synaptic transmission” in assay [1] (setting [7]). Besides, in assay [1] (50 nM CPA, HET vs HET+CPA, 40 Hz train), the “short-term plasticity (STP), fEPSP amplitude ratios pulses #2-10 to #1” value is given as “effected the short-term plasticity; also recorded: all statistically different”. Also, the fEPSPs result in assay [1] (1 μM N6-cyclopentyladenosine in bath ACSF) and in assay [1] (10 μM N6-cyclopentyladenosine in bath ACSF) was “completely eliminated fEPSPs” each time. For the same compound, in assay [1] (bath application in ACSF), the “time until N6-cyclopentyladenosine took effect after its application” value is at most 2 min. For the same compound, in assay [5], the “epileptogenic activity (repeated FSLEs) in hyperthermia” value is recorded as “blocked epileptogenic activity in hyperthermia; also recorded: no repetitive FSLEs formed”. For the same compound, the “abnormally wide circuit excitation, neural activity map (dF/Fmax)” value was “reduced significantly; also recorded: reduced the abnormally wide circuit excitation” in assay [6] and “abnormally wide CA1 circuit activation was confined; also recorded: reduced the abnormally wide circuit excitation” in assay [6] (listed as N6-cyclopentyladenosine). For the same compound, the “spatial extent of neural signal propagation” value in assay [6] (40 Hz train) is “significantly reduced the spatial extent of neural signal propagation”; in assay [6] (40 Hz train, listed as N6-cyclopentyladenosine), “significantly reduced the spatial extent of neural signal propagation; also recorded: reduced propagation of the evoked signal”. In addition, the “FWHM, spread of the evoked activity” value in assay [6] (HET slices + 50 nM CPA, 40 Hz train, untreated HET 591±106 μm, N=6 slices) is recorded as 491±106 μm.
